In the experiment the test system is reaginic antibody-induced passive cutaneous anaphylaxis (PCA) reaction. The experiment in a line: Passive Cutaneous Anaphylaxis (PCA) Test in rats (anti-asthma activity). It counts as in vivo, rat. The settings on record: for ED50: Rattus norvegicus, read-out: ID50 (the source's name); for anti-asthma activity: rat PCA testing, result in words. An excerpt: The skin of rats is first sensitized by the intradermal injection of reaginic (allergic) antibody. Twenty-four hours later, the animals receive a challenge injection of antigen together with Evan's blue dye given intravenously. The antigen, thus injected directly into the circulation, encounters the antibody in the skin and an "allergic reaction" occurs which is identified by the formation of intracutaneous edema. The edema is marked by the presence of the Evan's blue dye in the circulation.
The anti-asthmatic activity of these compounds is determined by the reaginic antibody-induced passive cutaneous anaphylaxis (PCA) reaction in rats.
In this test, 0.05 ml of appropriately diluted whole rat serum containing IgE antibody is injected intradermally into the skin of a rat. The next day, the animals are dosed with the test compound ten minutes prior to the i.v. challenge injection of antigen and Evan's blue dye. Thirty minutes later, the animals are sacrificed, the skin reflected and the reaction quantitated by measuring the dye-marked edema and scoring the color intensity of the reaction.

Setting [1] is: IP, rats dosed ten min. prior to challenge.
Setting [2] is: IP, 75 mpk, rats dosed ten min. prior to challenge.

Read-outs that look alike come from different tables or passages of the source.

One may read the % Inhibition as how much of the control response was suppressed. Low readings indicate a response near the control, high ones a response far below the control. As to `CC(=O)c1cc2c3ccccc3n(C)c(=O)n2n1` [Example 14], the “% Inhibition” value (PCA, IP, 150 mpk) is listed as 32%.
Turning to `O=C(O)c1cc2c3ccccc3[nH]c(=O)n2n1` [Example 13, 5,6-Dihydro-5-oxopyrazolo-[1,5-c]quinazoline-2-carboxylic acid], for the setting “PCA, IP, 75 mpk”, the “% Inhibition” value was found to be 36%.
For the compound `COC(=O)c1nn2c(=O)[nH]c3ccccc3c2c1C(=O)OC` [Example 11], the “% Inhibition” value (PCA, IP, 150 mpk) turned out to be 21%.
For the compound `CCOC(=O)c1cc2c3ccccc3[nH]c(=O)n2n1` [5,6-Dihydro-5-oxopyrazolo[1,5-c]quinazoline-2-carboxylic acid, ethyl ester], the anti-asthma activity result is given as “has anti-asthma activity”. In addition, the Maximum % inhibition (IP, 10 mg/kg, rats dosed ten min. prior to challenge) was determined as 94%. Further, the Maximum % inhibition (PO, 9 mg/kg, rats dosed ten min. prior to challenge) was 95%. Moreover, under setting [1], the ED50 was found to be 2 mg/kg. Also, the ED50 (PO (orally), rats dosed ten min. prior to challenge) came out at 3 mg/kg.
Consider `CCOC(=O)c1c(-c2ccccc2)nn2c(=O)[nH]c3ccccc3c12` [5,6-Dihydro-5-oxo-2-phenylpyrazolo[1,5-c]quinazoline-1-carboxylic acid, ethyl ester], for which the anti-asthma activity result is “has anti-asthma activity”. Besides, the Maximum % inhibition under setting [2] stood at 42%.
`CCOC(=O)c1nn2c(=O)[nH]c3ccccc3c2c1C` [Example 15]: the “% Inhibition” value (PCA, IP, 150 mpk) was found to be 63%. In addition, the ED50 (PCA, IP) was determined as 58 mg/kg.
Consider `CC(=O)c1cc2c3ccccc3[nH]c(=O)n2n1` [Example 12], for which, for the setting “PCA, IP, 75 mpk”, the “% Inhibition” value is listed as 32%.
Regarding `O=C(c1ccccc1)c1cc2c3ccccc3[nH]c(=O)n2n1` [Example 16], under “PCA, IP, 150 mpk”, the “% Inhibition” value is given as 37%.
With `CCOC(=O)c1cc2c3cc(Cl)ccc3[nH]c(=O)n2n1` [9-Chloro-5,6-dihydro-5-oxopyrazolo[1,5-c]quinazoline-2-carboxylic acid, ethyl ester], the anti-asthma activity entry is reported as “has anti-asthma activity”. The Maximum % inhibition under setting [2] was 93%. Also, the ED50 under setting [1] came to 9 mg/kg.
As to `O=c1[nH]c2ccccc2c2ccnn12` [Pyrazolo[1,5-c]quinazoline-5(6H)-one, Pyrazolo[1,5-c]quinazolin-5(6H)-one], the anti-asthma activity result is “has anti-asthma activity”. In addition, the Maximum % inhibition under setting [2] amounted to 59%.
Consider `CCOC(=O)c1cc2c3cc(OC)ccc3[nH]c(=O)n2n1` [Example 17], for which the “% Inhibition” value (PCA, IP, 25 mpk) was determined as 90%.
As to `CCCCOC(=O)c1cc2c3ccccc3[nH]c(=O)n2n1` [5,6-Dihydro-5-oxopyrazolo[1,5-c]-quinazoline-2-carboxylic acid, n-butyl ester], the anti-asthma activity entry is reported as “has anti-asthma activity”. The compound also gave a Maximum % inhibition (IP, (150 mpk) (10 mg/kg) both printed, rats dosed ten min. prior to challenge) of 78%. Further, the ED50 under setting [1] came out at 9 mg/kg.
